The nature of this test: Partition ratio was determined.

For `NCC12C3C4C5C3C1C5C42` (stereo not drawn), the Partition ratio was determined as 152.

Consider `NCC12C3C4C1C1C2C3C41c1ccccc1` (stereo not drawn), for which the Partition ratio was determined as 277.

Take `NCC12C3C4C1C1C2C3C41C1CC1` (stereo not drawn): the Partition ratio came out at 536.

Values taken from ChEMBL document CHEMBL1129988, “4-substituted cubylcarbinylamines: a new class of mechanism-based monoamine oxidase B inactivators” (J Med Chem, 1997).
